Measured values: patent publication US20260176249A1, “PROTEIN KINASE INHIBITOR, PREPARATION METHOD THEREFOR, AND APPLICATION THEREOF” (SHANDONG LUYE PHARMACEUTICAL CO., LTD., priority 2021, published 2026)
Where two headings read alike, the source gives them in different places.

Assays:
[1] = Metabolic stability in mouse liver microsomes; format: in vitro ADME; settings: for CLint scaled at 1 µM / half-life at 1 µM / microsomal CLint at 1 µM: mouse; for CLint scaled at 1 µM / half-life at 1 µM: pH 7.4; for microsomal CLint at 1 µM: pH 7.4, read-out: CLint(mic)
Protocol: (§1) a. Preparation of phosphate buffer: The phosphate buffer powder was dissolved in 100 mL of pure water to prepare a phosphate buffer solution with a pH of 7.4 and a concentration of 100 mM, which was stored in a 4° C. refrigerator for later use.
(§2) b. All samples as well as the reference testosterone were dissolved in DMSO to obtain a 10 mM stock solution. The 10 mM stock solution was diluted to 100 μM with acetonitrile to obtain a working solution for later use.
(§3) c. Preparation of liver microsome working solution: Each of the mouse, rat and human liver microsome stock solutions (at concentration of 20 mg/mL) was taken and diluted to 0.56 mg/mL with 100 mM phosphate buffer solution to obtain the liver microsome working solution.
(§4) d. Preparation of solution: An appropriate amount of MgCl2 was weighed and used to prepare a MgCl2 solution at a concentration of 60 mM using 100 mM phosphate buffer solution. An appropriate amount of NADPH was weighed and used to prepare a NADPH solution at a concentration of 20 mM using 100 mM phosphate buffer solution. An equal volume of 60 mM MgCl2 solution was added to prepare an NADPH working solution containing 10 mM NADPH and 30 mM MgCl2. An acetonitrile solution containing 20 ng/mL tolbutamide was prepared as the stop solution.
(§5) e. Liver microsome incubation: 2 μL of each compound and the positive drug testosterone working solution were added to 178 μL of liver microsome working solution (0.56 mg/mL), mixed gently, and pre-incubated in a vibrating constant temperature water bath pot at 37° C. for 10 min. After adding 20 μL of NADPH working solution, the mixture was placed in a vibrating constant temperature water bath pot at 37° C. and timed incubation was started for 5, 10, 20, 30 and 60 min.
(§6) f. Stopping reaction: After the corresponding time of incubation, 400 μL of stop solution was added to stop the reaction, and then the sample was immediately shaken for 1 min. The sample was centrifuged at 13500 rpm for 10 min at 10° C. After centrifugation, the supernatant was removed, diluted with water according to the needs of each compound, and analyzed by LC-MS. For the 0-minute sample, the stop solution was first added and mixed evenly with the liver microsomes, and then the NADPH working solution was added. For the negative control sample, 20 μL of 30 mM MgCl2 solution was added instead of the NADPH working solution.
(§7) T1/2 and CLint(mic) were calculated by the following formula.
(§8) [formula] [formula] • CLint(mic)=0.693/T1/2/liver microsomal protein concentration during incubation (mg/mL) • CLint(ver)=CLint(mic)*liver microsomal protein (mg)/liver weight (g)*liver weight to body weight ratio
(§9) Liver microsomal protein (mg)/liver weight (g): the value is 45 in both animal and human species.
(§10) Liver weight to body weight ratio: the parameters for mice, rats and humans are 88, 40 and 20 g/kg respectively.

[2] = Metabolic stability in rat liver microsomes; format: in vitro ADME; settings: for CLint scaled at 1 µM / half-life at 1 µM / microsomal CLint at 1 µM: rat; for CLint scaled at 1 µM / half-life at 1 µM: pH 7.4; for microsomal CLint at 1 µM: pH 7.4, read-out: CLint(mic)
Protocol: as §1, §2, §3, §4, §5, §6, §7, §8, §9, §10

PLK1 kinase = target: T1, PLK1 kinase (Homo sapiens, UniProt P53350); assay: Inhibitory activity on PLK1 kinase; format: biochemical; settings: for Imax: maximum effect caused by the compound at the test concentration
T1 construct: purchased Carnabio (Carna Biosciences) 05-157
Protocol: Detection solution PerkinElmer #TRF0218-M
Detection instrument PerkinElemer EnVision
a. Using the Echo machine, the compounds to be tested were diluted by 1:3 on a 384-well plate, and the highest concentration was 1 μM, with a total of 10 concentration points, and each concentration was tested in duplicate wells.
b. 5 μL/well of PLK1 kinase and peptide substrate mixture were added to the assay plate (containing controls).
d. The reaction was initiated by adding 5 μL/well of ATP solution;
e. The assay plate was centrifuged at 1000 rpm for about 15 seconds, a film was used to seal the assay plate which was incubated at 23° C. for a period of time;
f. A detection solution was added to all wells of the assay plate;
g. The assay plate was centrifuged at 1000 rpm for approximately 15 seconds, a film was used to seal the assay plate which was incubated at 23° C. for 60 min.
h. The assay plate was read on EnVision. The test results were analyzed using XLFIT5 software.

[3] = Metabolic stability in human liver microsomes; format: in vitro ADME; settings: for CLint scaled at 1 µM / half-life at 1 µM / microsomal CLint at 1 µM: human; for CLint scaled at 1 µM / half-life at 1 µM: pH 7.4; for microsomal CLint at 1 µM: pH 7.4, read-out: CLint(mic)
Protocol: as §1, §2, §3, §4, §5, §6, §7, §8, §9, §10

[4] = Permeability and efflux transporter substrate evaluation in Caco-2 cells; format: in vitro ADME; design: Papp A→B at 120 min / Papp B→A at 120 min / efflux ratio at 120 min / Papp at 120 min: dose or concentration left out as unconfirmed; settings: human
Protocol: (§11) The cells were cultured in a carbon dioxide incubator for 21-28 days before being used for transport experiments. During this period, the culture medium was changed every four to five days.
(§12) This project uses Hank's balanced salt buffer (pH 7.40±0.05) containing 10 mM HEPES as the transport buffer. The culture medium was removed from the culture plate and the cells were washed twice with preheated transport buffer (approximately 75 μL and 40 mL of transport buffer for each apical well and basolateral receiver plate respectively). The donor solution and receiver solution were added to the corresponding cell plate wells (75 and 250 μL for each apical and basolateral well respectively), and the bidirectional transport experiment was started (apical to basolateral (A-B) and basolateral to apical (B-A)). The test concentration of the test substance was […], and two replicate wells were made for each dosing concentration. The test concentration of Digoxin was […], with dosing bidirectionally; the test concentrations of nadolol and metoprolol were both […], and they were dosed in one direction (A-B direction), and two replicate wells were made for each of the three control compounds.
(§13) The initial donor solution is the TO sample. After adding the sample, it was mixed with the transport buffer and stop solution in a certain proportion.
(§14) All samples were vortexed, and then centrifuged at 3220×g for 20 min at 20° C. A proper volume of supernatant was transferred to a sample assay plate, and the sample was stored at 2-8° C. if it was not analyzed immediately after the plate was sealed, and LC MS/MS method was used for analysis.
(§15) The Lucifer Yellow Rejection Assay was used to test the integrity of the Caco-2 cell layer.
(§16) The following formulas were used to calculate the apparent permeability coefficient (Papp, cm/s), efflux ratio (ER), and solution recovery (%) (% Solution Recovery).
(§17) [formula] [formula] [formula] • VR is the volume of the receiver side solution (side A is 0.075 mL, side B is 0.25 mL); Area is the relative surface area of the cell monolayer (0.0804 cm^2); Time is the incubation time (7200 s); C0 is the initial concentration (nM) of the test substance at the donor side or the peak area ratio of the control compound; VD is the volume of the donor side (side A is 0.075 mL, side B is 0.25 mL); CD and CR are the final concentration (nM) of the test substance at the donor side and the receiver side respectively or the peak area ratio of the control compound; • Lucifer yellow transmittance rate (% Lucifer Yellow) is calculated using the following formula:
(§18) [formula] • RFUApical and RFUBasolateral are the relative fluorescence intensity of lucifer yellow at the apical and basolateral sides respectively. VApical and VBasolateral are the sample loading volumes at the apical and basolateral sides respectively (0.075 and 0.25 mL respectively).

Caco-2 cells = assay: as above; format: in vitro ADME; design: Papp A→B at 120 min / Papp B→A at 120 min / efflux ratio at 120 min / Papp at 120 min: dose or concentration left out as unconfirmed; settings: Caco-2
Protocol: as §11, §12, §13, §14, §15, §16, §17, §18

HCT116 cells = assay: Inhibitory activity on HCT116 cell proliferation (ATPlite); format: cell-based; settings: Homo sapiens, HCT-116; HCT116 cells, 72 h; read-out: IC50
Protocol: Cell culture medium: RPMI1640+10% FBS (GBICO)
Cell culture plate: 96-well plate (Shanghai Jingan Biotechnology Co., Ltd.)
Detection kit: ATPlite 1step Luminescence (PerkinElmer)
Detection instrument: BioTek multifunctional microplate reader
2. Test method: HCT116 cells in the logarithmic growth phase were seeded into a white-wall clear-bottom 96-well plate at a density of 720 cells per well, and cultured overnight in a 37° C., 5% CO2 incubator. […] After adding the drug, culturing was continued for 72 h in a 37° C., 5% CO2 incubator.
GraphPad Prism 7.0 was used to process the data, the cell inhibition rate curve was obtained and IC50 was calculated.

[5] = PLK1 kinase, highest concentration 1 μM, 10 points, read-out: IC50

T1 sequence (P53350 whole entry): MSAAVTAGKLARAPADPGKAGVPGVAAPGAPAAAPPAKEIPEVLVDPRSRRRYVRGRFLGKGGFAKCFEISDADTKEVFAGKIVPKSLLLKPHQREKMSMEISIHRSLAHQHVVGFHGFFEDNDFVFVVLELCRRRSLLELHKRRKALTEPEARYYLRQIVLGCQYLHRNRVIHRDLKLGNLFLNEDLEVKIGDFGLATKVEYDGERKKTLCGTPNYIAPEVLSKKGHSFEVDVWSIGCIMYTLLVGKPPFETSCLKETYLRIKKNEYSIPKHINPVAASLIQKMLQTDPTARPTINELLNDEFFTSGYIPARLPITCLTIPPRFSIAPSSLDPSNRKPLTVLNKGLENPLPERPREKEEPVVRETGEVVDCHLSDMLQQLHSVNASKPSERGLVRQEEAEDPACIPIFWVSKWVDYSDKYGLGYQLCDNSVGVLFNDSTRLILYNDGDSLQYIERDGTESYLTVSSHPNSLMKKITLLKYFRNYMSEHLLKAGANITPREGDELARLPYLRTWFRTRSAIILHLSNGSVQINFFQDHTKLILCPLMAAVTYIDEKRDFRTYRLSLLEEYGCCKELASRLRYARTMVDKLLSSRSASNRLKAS

Which “60 min remaining amount” value [1] does the source give for `CN1CCN(c2ccc(OC(F)(F)F)c(Nc3ncc4c(n3)-c3c(c(C(=O)NO)nn3CCF)CC4)c2)CC1` [Compound 17] here?
Its value is 2.46%.

What about the Clearance rate [1] of the same molecule?
Its Clearance rate is “High”.

And the CLint scaled at 1 µM [1]?
The CLint scaled at 1 µM was 470 mL/min/kg.

And the half-life at 1 µM [1]?
The half-life at 1 µM was 11.7 min.

And the microsomal CLint at 1 µM [1]?
The microsomal CLint at 1 µM was 119 µL/min/mg.

What about the “60 min remaining amount” value [2] of the same molecule?
The value was 1.93%.

And the Clearance rate [2]?
Its Clearance rate is “High”.

What about the CLint scaled at 1 µM [2] of the same molecule?
Its CLint scaled at 1 µM is 410 mL/min/kg.

And the half-life at 1 µM [2]?
Its half-life at 1 µM is 6.08 min.

And the microsomal CLint at 1 µM [2]?
The microsomal CLint at 1 µM was 228 µL/min/mg.

What about the IC50 (PLK1 kinase; [5]) of the same molecule?
The IC50 was 0.814 nM.

And the Imax (PLK1 kinase)?
Its Imax is 99.97%.

And the “60 min remaining amount” value [3]?
The value was 26.0%.

What about the Clearance rate [3] of the same molecule?
Its Clearance rate is “Medium”.

What about the CLint scaled at 1 µM [3] of the same molecule?
Its CLint scaled at 1 µM is 41.8 mL/min/kg.

What about the half-life at 1 µM [3] of the same molecule?
Its half-life at 1 µM is 29.9 min.

And the microsomal CLint at 1 µM [3]?
The microsomal CLint at 1 µM was 46.4 µL/min/mg.

Which results are given for `CN1CCN(c2ccc(OC(F)(F)F)c(Nc3ncc4ccc5c(C(=O)NO)nn(CC(F)(F)F)c5c4n3)c2)CC1` [Compound 32]?
IC50 (PLK1 kinase): 0.463 nM; Imax (PLK1 kinase): 99.87%

Which results are given for `CN1CCN(c2ccc(OC(F)(F)F)c(Nc3ncc4ccc5c(C(N)=O)cn(C)c5c4n3)c2)CC1` [Compound 22]?
IC50 (PLK1 kinase; [5]): 1.51 nM; Imax (PLK1 kinase): 99.99%

For `CN1CCN(c2ccc(OC(F)(F)F)c(Nc3ncc4ccc5c(C(N)=O)nn(C6CC6)c5c4n3)c2)CC1` [Compound 27], which IC50 (PLK1 kinase) is on record?
The IC50 was 0.459 nM.

And the Imax (PLK1 kinase)?
Its Imax is 100.24%.

What does the source list for `CCc1sc(C(N)=O)c2c1-c1nc(Nc3cc(N4CCN(C)CC4)ccc3OC(F)(F)F)ncc1CC2` [Compound 7]?
60 min remaining amount [1]: 2.92%; Clearance rate [1]: High; CLint scaled at 1 µM [1]: 940 mL/min/kg; half-life at 1 µM [1]: 5.84 min; microsomal CLint at 1 µM [1]: 237 µL/min/mg; efflux ratio at 120 min ([4]; Caco-2, pH 7.4): 1.97; Papp at 120 min ([4]; Caco-2, pH 7.4, read-out: Classification Permeability): < 0.5 ×10⁻⁶ cm/s; Papp A→B at 120 min ([4]; pH 7.4, Caco-2, apical to basolateral, 120 min, pH 7.40): 0.275 ×10⁻⁶ cm/s; Papp B→A at 120 min ([4]; pH 7.4, Caco-2, basolateral to apical, 120 min, pH 7.40): 0.542 ×10⁻⁶ cm/s; Classification Efflux transporter substrate (Caco-2 cells): Very unlikely or not (ERa < 2.00); 60 min remaining amount [2]: 2.06%; Clearance rate [2]: High; CLint scaled at 1 µM [2]: 1090 mL/min/kg; half-life at 1 µM [2]: 2.3 min; microsomal CLint at 1 µM [2]: 603 µL/min/mg; IC50 (PLK1 kinase; [5]): 0.79 nM; Imax (PLK1 kinase): 100.68%; 60 min remaining amount [3]: 14.1%; Clearance rate [3]: High; CLint scaled at 1 µM [3]: 60.7 mL/min/kg; half-life at 1 µM [3]: 20.6 min; microsomal CLint at 1 µM [3]: 67.4 µL/min/mg

Which IC50 (HCT116 cells) does the source give for `CN1CCN(c2ccc(OC(F)(F)F)c(Nc3ncc4ncc5c(C(N)=O)nn(CCO)c5c4n3)c2)CC1` [Compound 6] here?
The IC50 was 2720 nM.

Which IC50 (PLK1 kinase) does the source give for `CN1CCN(c2ccc(OC(F)(F)F)c(Nc3ncc4ccc5c(C(N)=O)nn(CC(F)(F)F)c5c4n3)c2)CC1` [Compound 28] here?
The IC50 was 0.67 nM.

What about the Imax (PLK1 kinase) of the same molecule?
The Imax was 100.08%.

Which IC50 (PLK1 kinase) does the source give for `CN1CCN(c2ccc(OC(F)(F)F)c(Nc3ncc4ccc5c(C(N)=O)cn(CCO)c5c4n3)c2)CC1` [Compound 21] here?
The IC50 was 0.756 nM.

And the Imax (PLK1 kinase)?
Its Imax is 99.15%.
